The values below come from the SangsterLogP compilation.

Structures are written as SMILES.

In general, logP refers to a log measure of how a compound divides between an organic and an aqueous phase. Low values mean lower lipophilicity, high ones higher lipophilicity.

Regarding `CCCCC(CC)C(=O)N1c2ccc(C)cc2C2CN(C)CCC21` (stereo not given), the log partition coefficient (logP) is 4.14. The result for `CC(=O)N1c2ccc(C)cc2[C@H]2CN(C)CC[C@H]21` (relative stereo) reads 1.25; that for `CCCCCCC(=O)N1c2ccc(C)cc2[C@H]2CN(C)CC[C@H]21` (relative stereo), 3.57.

Turning to `CCCCCCCCC(=O)N1c2ccc(C)cc2[C@H]2CN(C)CC[C@H]21` (relative stereo), the logP is 4.41.

With `CCCCCCCCCC(=O)N1c2ccc(C)cc2[C@H]2CN(C)CC[C@H]21` (relative stereo), the logP turned out to be 4.83. The result for `CCCCCCCCCCCC(=O)N1c2ccc(C)cc2[C@H]2CN(C)CC[C@H]21` (relative stereo) reads 5.66; that for `CCCCCCCCCCCCCC(=O)N1c2ccc(C)cc2[C@H]2CN(C)CC[C@H]21` (relative stereo), 6.7; that for `CCCCCCCCCCCCCCCC(=O)N1c2ccc(C)cc2[C@H]2CN(C)CC[C@H]21` (relative stereo), 7.33. The compound `Cc1ccc2c(c1)[C@H]1CN(C)CC[C@H]1N2` (relative stereo) registered a logP of 1.6.

As to `Cc1ccc2c(c1)[C@H]1CN(C)CC[C@H]1N2C(=O)C=Cc1ccccc1` (relative stereo), the logP is 3.49.
